Assay results: the NIST ThermoML archive (doi:10.1016/j.jct.2005.10.006)
Numbers after ± are expanded uncertainties.

Assay: xn = mol fraction of the nth substance listed
Conditions: Fluid (supercritical or subcritical phases), Spherical resonator

N#N [nitrogen] + C
Conditions | speed of sound [m/s]
300 K, 17969 kPa, x1 = 0.2 | 476.54 ± 0.78
300 K, 18326 kPa, x1 = 0.1 | 491.78 ± 0.8
300 K, 19736 kPa, x1 = 0.2 | 492.16 ± 0.8
300 K, 19924 kPa, x1 = 0.1 | 507.75 ± 0.83
300 K, 24934 kPa, x1 = 0.1 | 563.32 ± 0.92
300 K, 30250 kPa, x1 = 0.1 | 625.49 ± 1
350 K, 202.3 kPa, x1 = 0.1 | 466.26 ± 0.76
350 K, 248.7 kPa, x1 = 0.2 | 452.58 ± 0.74
350 K, 498.6 kPa, x1 = 0.2 | 452.54 ± 0.74
350 K, 502 kPa, x1 = 0.1 | 466.1 ± 0.76
350 K, 552.3 kPa, x1 = 0.5422 | 415.67 ± 0.68
350 K, 814.8 kPa, x1 = 0.5422 | 415.97 ± 0.68
350 K, 1001 kPa, x1 = 0.1 | 465.83 ± 0.76
350 K, 1374 kPa, x1 = 0.5422 | 416.67 ± 0.68
350 K, 1999 kPa, x1 = 0.2 | 452.66 ± 0.74
350 K, 2001 kPa, x1 = 0.1 | 465.52 ± 0.76
350 K, 2717 kPa, x1 = 0.5422 | 418.62 ± 0.69
350 K, 3007 kPa, x1 = 0.1 | 465.52 ± 0.76
350 K, 4009 kPa, x1 = 0.2 | 453.86 ± 0.74
350 K, 4012 kPa, x1 = 0.1 | 465.86 ± 0.76
350 K, 5419 kPa, x1 = 0.5422 | 423.85 ± 0.7
350 K, 6023 kPa, x1 = 0.1 | 467.64 ± 0.76
350 K, 6042 kPa, x1 = 0.2 | 456.41 ± 0.75
350 K, 8048 kPa, x1 = 0.1 | 471.02 ± 0.77
350 K, 8070 kPa, x1 = 0.5422 | 430.68 ± 0.71
350 K, 8140 kPa, x1 = 0.2 | 460.55 ± 0.75
350 K, 9931 kPa, x1 = 0.2 | 465.36 ± 0.76
350 K, 10069 kPa, x1 = 0.1 | 476.07 ± 0.78
350 K, 10144 kPa, x1 = 0.2 | 466.02 ± 0.76
350 K, 12122 kPa, x1 = 0.1 | 482.98 ± 0.79
350 K, 12140 kPa, x1 = 0.2 | 472.93 ± 0.77
350 K, 13507 kPa, x1 = 0.5422 | 449.48 ± 0.74
350 K, 14143 kPa, x1 = 0.1 | 491.53 ± 0.8
350 K, 14157 kPa, x1 = 0.2 | 481.39 ± 0.79
350 K, 16162 kPa, x1 = 0.2 | 491.18 ± 0.8
350 K, 16179 kPa, x1 = 0.1 | 501.83 ± 0.82
350 K, 17867 kPa, x1 = 0.2 | 500.53 ± 0.81
350 K, 18210 kPa, x1 = 0.1 | 513.66 ± 0.83
350 K, 19448 kPa, x1 = 0.2 | 509.95 ± 0.83
350 K, 19809 kPa, x1 = 0.1 | 523.96 ± 0.85
400 K, 199.4 kPa, x1 = 0.1 | 494.39 ± 0.8
400 K, 231.4 kPa, x1 = 0.2 | 480.07 ± 0.78
400 K, 497.1 kPa, x1 = 0.1 | 494.48 ± 0.8
400 K, 501.8 kPa, x1 = 0.2 | 480.26 ± 0.78
400 K, 622 kPa, x1 = 0.5422 | 442.06 ± 0.72
400 K, 918.4 kPa, x1 = 0.5422 | 442.56 ± 0.72
400 K, 995.6 kPa, x1 = 0.1 | 494.7 ± 0.81
400 K, 1551 kPa, x1 = 0.5422 | 443.69 ± 0.73
400 K, 1990 kPa, x1 = 0.1 | 495.31 ± 0.81
400 K, 2005 kPa, x1 = 0.2 | 481.61 ± 0.78
400 K, 2989 kPa, x1 = 0.1 | 496.16 ± 0.81
400 K, 3075 kPa, x1 = 0.5422 | 446.66 ± 0.73
400 K, 3994 kPa, x1 = 0.1 | 497.25 ± 0.81
400 K, 4015 kPa, x1 = 0.2 | 484.18 ± 0.79
400 K, 6011 kPa, x1 = 0.1 | 500.22 ± 0.81
400 K, 6027 kPa, x1 = 0.2 | 487.68 ± 0.79
400 K, 6170 kPa, x1 = 0.5422 | 453.88 ± 0.74
400 K, 8012 kPa, x1 = 0.1 | 504.2 ± 0.82
400 K, 8046 kPa, x1 = 0.2 | 492.14 ± 0.8
400 K, 9240 kPa, x1 = 0.5422 | 462.55 ± 0.76
400 K, 10023 kPa, x1 = 0.1 | 509.28 ± 0.83
400 K, 10077 kPa, x1 = 0.2 | 497.61 ± 0.81
400 K, 12004 kPa, x1 = 0.2 | 503.66 ± 0.82
400 K, 12054 kPa, x1 = 0.1 | 515.5 ± 0.84
400 K, 14084 kPa, x1 = 0.1 | 522.78 ± 0.85
400 K, 14562 kPa, x1 = 0.2 | 513.02 ± 0.83
400 K, 15633 kPa, x1 = 0.5422 | 484.69 ± 0.79
400 K, 16027 kPa, x1 = 0.2 | 519 ± 0.84
400 K, 16081 kPa, x1 = 0.1 | 530.96 ± 0.86
400 K, 16082 kPa, x1 = 0.1 | 530.96 ± 0.86
400 K, 18039 kPa, x1 = 0.2 | 527.93 ± 0.86
400 K, 18052 kPa, x1 = 0.1 | 539.93 ± 0.88
400 K, 19788 kPa, x1 = 0.1 | 548.54 ± 0.89
400 K, 20114 kPa, x1 = 0.2 | 537.94 ± 0.87
